Each structure is given as a SMILES string. Some results are limits rather than exact numbers.

The target in the assay is Mouse ERK2 protein (Mus musculus (Mouse), UniProt P63085). The experiment in a line: Coupled MEK1/ERK2 IMAP assay or Active ERK2 IMAP assay. Format: biochemical. Conditions: Table 1, class symbols, 30 μM ATP.
Mouse ERK2 protein, sequence (P63085 whole entry): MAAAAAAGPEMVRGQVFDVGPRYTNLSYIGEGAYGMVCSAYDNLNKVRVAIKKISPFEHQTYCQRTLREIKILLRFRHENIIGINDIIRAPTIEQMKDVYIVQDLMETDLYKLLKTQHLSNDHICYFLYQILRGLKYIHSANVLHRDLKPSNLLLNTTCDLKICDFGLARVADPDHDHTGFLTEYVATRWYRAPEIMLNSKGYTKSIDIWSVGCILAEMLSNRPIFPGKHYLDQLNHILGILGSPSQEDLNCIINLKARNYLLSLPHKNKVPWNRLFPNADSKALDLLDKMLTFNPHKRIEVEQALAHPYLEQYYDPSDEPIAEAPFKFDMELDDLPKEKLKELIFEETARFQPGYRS

As to `Cc1nc2cc(-c3n[nH]c4c3CN(C(=O)N[C@@H]3CCCN(Cc5cccc6ncccc56)C3)CC4)ccc2o1` [Compound 146, 1,4,6,7-tetrahydro-3-(2-methyl-5-benzoxazolyl)-N-[1-(5-quinolinylmethyl)-3(R)-piperidinyl]-5H-pyrazolo[4,3-c]pyridine-5-carboxamide], the IC50 – broadly, the point on the concentration scale where inhibition reaches its midpoint – lay within 21 to 100 nM.
The same measure for `Cc1nc2cc(-c3n[nH]c4c3CN(C(=O)N[C@@H]3CCCN(Cc5cn(C)c6ccccc56)C3)CC4)ccc2o1` [Compound 148, 1,4,6,7-tetrahydro-3-(2-methyl-5-benzoxazolyl)-N-[1-[(1-methyl-1H-indol-3-yl)methyl]-3(R)-piperidinyl]-5H-pyrazolo[4,3-c]pyridine-5-carboxamide]: 21 to 100 nM; for `COc1cccc(F)c1CN1CCC(F)C(NC(=O)N2CCc3[nH]nc(-c4ccc5nccn5c4)c3C2)C1` (stereo not drawn) [Compound 150, N-[4-fluoro-1-[(2-fluoro-6-methoxyphenyl)methyl]-3-piperidinyl]-1,4,6,7-tetrahydro-3-imidazo[1,2-a]pyridin-6-yl-5H-pyrazolo[4,3-c]pyridine-5-carboxamide]: under 20 nM.
For `Cc1nc2cc(-c3n[nH]c4c3CN(C(=O)N[C@@H]3CCCN(Cc5csc6ccccc56)C3)CC4)ccc2o1` [Compound 152, N-[1-(benzo[b]thien-3-ylmethyl)-3(R)-piperidinyl]-1,4,6,7-tetrahydro-3-(2-methyl-5-benzoxazolyl)-5H-pyrazolo[4,3-c]pyridine-5-carboxamide], the half-inhibitory concentration (IC50) is under 20 nM.
The figure for `Cc1nc2cc(-c3n[nH]c4c3CN(C(=O)N[C@@H]3CCCN(Cc5ccc6ccccc6c5)C3)CC4)ccc2o1` [Compound 154, 1,4,6,7-tetrahydro-3-(2-methyl-5-benzoxazolyl)-N-[1-(2-naphthalenylmethyl)-3(R)-piperidinyl]-5H-pyrazolo[4,3-c]pyridine-5-carboxamide] is under 20 nM.
On to `COc1cccc(F)c1CN1[C@H]2CC[C@H](NC(=O)N3CCc4[nH]nc(-c5ccnc(C)c5)c4C3)[C@@H]1CC2` [Compound 160, N-[endo-8-[(2-fluoro-6-methoxyphenyl)methyl]-8-azabicyclo[3.2.1]oct-2-yl]-1,4,6,7-tetrahydro-3-(2-methyl-4-pyridinyl)-5H-pyrazolo[4,3-c]pyridine-5-carboxamide], for which the concentration for half-maximal inhibition (IC50) is 101 to 1000 nM.
For the molecule `COc1cccc(F)c1CN1[C@H]2CC[C@@H](NC(=O)N3CCc4[nH]nc(-c5ccnc(C)c5)c4C3)[C@@H]1CC2` [Compound 162, N-[exo-8-[(2-fluoro-6-methoxyphenyl)methyl]-8-azabicyclo[3.2.1]oct-2-yl]-1,4,6,7-tetrahydro-3-(2-methyl-4-pyridinyl)-5H-pyrazolo[4,3-c]pyridine-5-carboxamide], the concentration for half-maximal inhibition (IC50) was 21 to 100 nM.
The figure for `Cc1cc(-c2n[nH]c3c2CN(C(=O)N[C@H]2CC[C@H]4CC[C@@H]2N4Cc2c(F)cccc2F)CC3)ccn1` [Compound 164, N-[endo-8-[(2,6-difluorophenyl)methyl]-8-azabicyclo[3.2.1]oct-2-yl]-1,4,6,7-tetrahydro-3-(2-methyl-4-pyridinyl)-5H-pyrazolo[4,3-c]pyridine-5-carboxamide] is 101 to 1000 nM; for `Cc1cc(-c2n[nH]c3c2CN(C(=O)N[C@H]2CC[C@H]4CC[C@@H]2N4Cc2ccccc2F)CC3)ccn1` [Compound 166, N-[endo-8-[(2-fluorophenyl)methyl]-8-azabicyclo[3.2.1]oct-2-yl]-1,4,6,7-tetrahydro-3-(2-methyl-4-pyridinyl)-5H-pyrazolo[4,3-c]pyridine-5-carboxamide] it is 101 to 1000 nM; for `Cc1cc(-c2n[nH]c3c2CN(C(=O)N[C@@H]2CC[C@H]4CC[C@@H]2N4Cc2ccccc2F)CC3)ccn1` [Compound 168, N-[exo-8-[(2-fluorophenyl)methyl]-8-azabicyclo[3.2.1]oct-2-yl]-1,4,6,7-tetrahydro-3-(2-methyl-4-pyridinyl)-5H-pyrazolo[4,3-c]pyridine-5-carboxamide] it is under 20 nM.
The same measure for `COc1cccc(F)c1CN1CCC[C@@H](NC(=O)N2CCc3[nH]nc(-c4ccc5nc(C)sc5c4)c3C2)C1` [Compound 170, N-[1-[(2-fluoro-6-methoxyphenyl)methyl]-3(R)-piperidinyl]-1,4,6,7-tetrahydro-3-(2-methyl-6-benzothiazolyl)-5H-pyrazolo[4,3-c]pyridine-5-carboxamide]: under 20 nM.
The figure for `Cc1nc2ccc(-c3n[nH]c4c3CN(C(=O)N[C@@H]3CCCN(Cc5c(F)cccc5F)C3)CC4)cc2s1` [Compound 172, N-[1-[(2,6-difluorophenyl)methyl]-3(R)-piperidinyl]-1,4,6,7-tetrahydro-3-(2-methyl-6-benzothiazolyl)-5H-pyrazolo[4,3-c]pyridine-5-carboxamide] is under 20 nM; for `O=C(N[C@@H]1CCCN(CCc2ccccc2)C1)N1CCc2[nH]nc(-c3ccncc3)c2C1` [Compound 173, 1,4,6,7-tetrahydro-N-[1-(2-phenylethyl)-3(R)-piperidinyl]-3-(4-pyridinyl)-5H-pyrazolo[4,3-c]pyridine-5-carboxamide] it is 21 to 100 nM; for `Cc1nc2ccc(-c3n[nH]c4c3CN(C(=O)N[C@@H]3CCCN(Cc5csc6ccccc56)C3)CC4)cc2s1` [Compound 174, N-[1-(benzo[b]thien-3-ylmethyl)-3(R)-piperidinyl]-1,4,6,7-tetrahydro-3-(2-methyl-6-benzothiazolyl)-5H-pyrazolo[4,3-c]pyridine-5-carboxamide] it is under 20 nM.
The molecule `Cc1nc2ccc(-c3n[nH]c4c3CN(C(=O)N[C@@H]3CCCN(Cc5coc6ccccc56)C3)CC4)cc2s1` [Compound 176, N-[1-(3-benzofuranylmethyl)-3(R)-piperidinyl]-1,4,6,7-tetrahydro-3-(2-methyl-6-benzothiazolyl)-5H-pyrazolo[4,3-c]pyridine-5-carboxamide] had an IC50 of under 20 nM.
The figure for `O=C(N[C@@H]1CCCN(Cc2ccccc2)C1)N1CCc2[nH]nc(-c3ccc4c(c3)CCO4)c2C1` [Compound 177, 3-(2,3-dihydro-5-benzofuranyl)-1,4,6,7-tetrahydro-N-[1-(phenylmethyl)-3(R)-piperidinyl]-5H-pyrazolo[4,3-c]pyridine-5-carboxamide] is under 20 nM.
`Cc1cc(-c2n[nH]c3c2CN(C(=O)N[C@@H]2CC[C@H]4CC[C@@H]2N4Cc2c(F)cccc2F)CC3)ccn1` [Compound 178, N-[exo-8-[(2,6-difluorophenyl)methyl]-8-azabicyclo[3.2.1]oct-2-yl]-1,4,6,7-tetrahydro-3-(2-methyl-4-pyridinyl)-5H-pyrazolo[4,3-c]pyridine-5-carboxamide] returned an IC50 of under 20 nM.
The same measure for `O=C(N[C@@H]1CCCN(Cc2c(F)cccc2F)C1)N1CCc2[nH]nc(-c3ccc4c(c3)CCO4)c2C1` [Compound 179, N[1-[(2,6-difluorophenyl)methyl]-3(R)-piperidinyl]-3-(2,3-dihydro-5-benzofuranyl)-1,4,6,7-tetrahydro-5H-pyrazolo[4,3-c]pyridine-5-carboxamide]: 21 to 100 nM; for `Cc1cc(-c2n[nH]c3c2CN(C(=O)N[C@H]2CN(Cc4c(F)cccc4F)CC(F)(F)C2)CC3)ccn1` [Compound 180, N-[1-[(2,6-difluorophenyl)methyl]-5,5-difluoro-3(R)-piperidinyl]-1,4,6,7-tetrahydro-3-(2-methyl-4-pyridinyl)-5H-pyrazolo[4,3-c]pyridine-5-carboxamide]: 21 to 100 nM; for `COc1cccc(F)c1CN1CCC[C@@H](NC(=O)N2CCc3[nH]nc(-c4ccc5c(c4)CCO5)c3C2)C1` [Compound 181, (R)-3-(2,3-dihydrobenzofuran-5-yl)-N-(1-(2-fluoro-6-methoxybenzyl)piperidin-3-yl)-6,7-dihydro-1H-pyrazolo[4,3-c]pyridine-5(4H)-carboxamide]: under 20 nM.
The figure for `O=C(N[C@@H]1CCCN(Cc2csc3ccccc23)C1)N1CCc2[nH]nc(-c3ccc4c(c3)CCO4)c2C1` [Compound 183, N-[1-(benzo[b]thien-3-ylmethyl)-3(R)-piperidinyl]-3-(2,3-dihydro-5-benzofuranyl)-1,4,6,7-tetrahydro-5H-pyrazolo[4,3-c]pyridine-5-carboxamide] is under 20 nM.
The same measure for `Cc1nc2cc(-c3n[nH]c4c3CN(C(=O)N[C@@H]3CCCN(Cc5c(C)cccc5C)C3)CC4)ccc2s1` [Compound 184, N-[1-[(2,6-dimethylphenyl)methyl]-3(R)-piperidinyl]-1,4,6,7-tetrahydro-3-(2-methyl-5-benzothiazolyl)-5H-pyrazolo[4,3-c]pyridine-5-carboxamide]: 21 to 100 nM; for `Cc1nc2ccc(-c3n[nH]c4c3CN(C(=O)N[C@@H]3CCCN(Cc5ccccc5)C3)CC4)cc2o1` [Compound 185, 1,4,6,7-tetrahydro-3-(2-methyl-6-benzoxazolyl)-N-[1-(phenylmethyl)-3(R)-piperidinyl]-5H-pyrazolo[4,3-c]pyridine-5-carboxamide]: 21 to 100 nM; for `COc1cccc(F)c1CN1CCC[C@@H](NC(=O)N2CCc3[nH]nc(-c4ccc5sc(C)nc5c4)c3C2)C1` [Compound 186, (R)-N-(1-(2-fluoro-6-methoxybenzyl)piperidin-3-yl)-3-(2-methylbenzo[d]thiazol-5-yl)-6,7-dihydro-1H-pyrazolo[4,3-c]pyridine-5(4H)-carboxamide]: 21 to 100 nM.
Turning to `Cc1nc2ccc(-c3n[nH]c4c3CN(C(=O)N[C@@H]3CCCN(Cc5c(F)cccc5F)C3)CC4)cc2o1` [Compound 187, N-[1-[(2,6-difluorophenyl)methyl]-3(R)-piperidinyl]-1,4,6,7-tetrahydro-3-(2-methyl-6-benzoxazolyl)-5H-pyrazolo[4,3-c]pyridine-5-carboxamide], the half-maximal inhibitory concentration (IC50) was 101 to 1000 nM.
In the case of `Cc1nc2cc(-c3n[nH]c4c3CN(C(=O)N[C@@H]3CCCN(Cc5c(F)cccc5F)C3)CC4)ccc2s1` [Compound 188, N-[1-[(2,6-difluorophenyl)methyl]-3(R)-piperidinyl]-1,4,6,7-tetrahydro-3-(2-methyl-5-benzothiazolyl)-5H-pyrazolo[4,3-c]pyridine-5-carboxamide], the concentration for half-maximal inhibition (IC50) was 101 to 1000 nM.
The figure for `Cc1nc2ccc(-c3n[nH]c4c3CN(C(=O)N[C@@H]3CCCN(Cc5csc6ccccc56)C3)CC4)cc2o1` [Compound 189, N-[1-(benzo[b]thien-3-ylmethyl)-3(R)-piperidinyl]-1,4,6,7-tetrahydro-3-(2-methyl-6-benzoxazolyl)-5H-pyrazolo[4,3-c]pyridine-5-carboxamide] is under 20 nM.

Source of the values: patent US9242981B2, “Fused pyrazole derivatives as novel ERK inhibitors” (Merck Sharp & Dohme Corp., priority 2010, dated 2016).
